Data on 16 molecules can be found in patent US20260078103A1, “ISOQUINOLONES AS PI3K INHIBITORS” (OnKure, Inc., priority 2022, published 2026).

Each structure is given as a SMILES string.

In one assay the test system is T47D cells expressing mutant PI3Ka (H1047R). As to the kind of experiment: In vitro cell proliferation, T47D cells (CellTiter-Glo). The following applies: Homo sapiens, T47D, 72 h, inhibition of proliferation, read-out: Avg T-47D EC50. It is filed as cell-based. A digest of the protocol: (§1)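 T47D cells in RPMI/10% FBS/insulin (0.2 units/mL) or SKBR3 in McCoys 5a/10% FBS, 1,500 cells/well, grown 72 h at 37 °C with 10-point compound dilutions. CellTiter-Glo luminescence; % inhibition normalised to 0.1% DMSO and 10 uM Alpelisib, EC50 from four-parameter curve fit.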
On the technique in general: ATP-based viability assays read luminescence as a measure of living cells.
One may read the EC50 as the concentration needed to bring the measured effect to its halfway point. Take `Cc1cc([C@@H](C)Nc2ccccc2C(=O)O)c2cc(OCC(F)(F)F)n(C)c(=O)c2c1` [Example 332]: the EC50 was 500 to 2000 nM.
As for `Cc1cc([C@@H](C)Nc2ccccc2C(=O)O)c2cc(OCC3(C)CC3)n(C)c(=O)c2c1` [Example 333], the EC50 was in the range of 1 to 500 nM.
`Cc1cc([C@@H](C)Nc2ccccc2C(=O)O)c2cc(OCc3ccc(C)nc3)n(C)c(=O)c2c1` [Example 334]: the EC50 lay in the range of 1 to 500 nM.
Take `Cc1cc([C@@H](C)Nc2ccccc2C(=O)O)c2cc(OCc3ccccn3)n(C)c(=O)c2c1` [Example 335]: the EC50 is 500 to 2000 nM.
On the same count and under the same terms, the result for `Cc1cc([C@@H](C)Nc2ccc(Cl)nc2C(=O)O)c2cc(N3CCN(CC(F)(F)F)CC3)n(C)c(=O)c2c1` [Example 336] reads 1 to 500 nM; that for `CC(C)c1ncc(-c2cc3c([C@@H](C)Nc4ccccc4C(=O)O)cc(Cl)cc3c(=O)n2C)cn1` [Example 337], 1 to 500 nM; that for `Cc1cc([C@@H](C)Nc2ccccc2C(=O)O)c2cc(-c3cccc(C(F)F)n3)n(C)c(=O)c2c1` [Example 338], 1 to 500 nM.
As for `Cc1cc([C@@H](C)Nc2ccccc2C(=O)O)c2cc(OC3CC3)n(C)c(=O)c2c1` [Example 339], the EC50 was 500 to 2000 nM.
Same read-out and setting: the result for `Cc1cc([C@@H](C)Nc2ccccc2C(=O)O)c2cc(N3CCN(c4nccs4)CC3)n(C)c(=O)c2c1` [Example 340] reads 1 to 500 nM; that for `Cc1cc([C@@H](C)Nc2ccccc2C(=O)O)c2cc(-c3cnc(C(F)F)nc3)n(C)c(=O)c2c1` [Example 341], 1 to 500 nM.
On to `Cc1cc([C@@H](C)Nc2ccccc2C(=O)O)c2cc(OCc3ccnc(C)c3)n(C)c(=O)c2c1` [Example 342], for which the EC50 lay in the range of 1 to 500 nM.
On the same count and under the same terms, the result for `Cc1cc([C@@H](C)Nc2cccc(F)c2C(=O)O)c2cc(N3CCN(c4ccc(C)nc4C)CC3)n(C)c(=O)c2c1` [Example 343] reads 1 to 500 nM; that for `C[C@@H](Nc1ccccc1C(=O)O)c1cc(F)cc2c(=O)n(C)c(-c3cnc(C4CC4)s3)cc12` [Example 344], 1 to 500 nM; that for `C[C@@H](Nc1ccccc1C(=O)O)c1cc(F)cc2c(=O)n(C)c(-c3cnc(OC4CC4)s3)cc12` [Example 345], 1 to 500 nM.
In the case of `COC(C)(C)c1ncc(-c2cc3c([C@@H](C)Nc4cccc(F)c4C(=O)O)cc(C)cc3c(=O)n2C)cc1F` [Example 346], the EC50 lay within 1 to 500 nM.
For `CCOc1ncc(-c2cc3c([C@@H](C)Nc4cccc(F)c4C(=O)O)cc(C)cc3c(=O)n2C)s1` [Example 347], the EC50 was in the range of 1 to 500 nM.

The test system of a further assay is SKBR3 cells express WT PI3Ka. As to the kind of experiment: In vitro cell proliferation, SKBR3 cells (CellTiter-Glo). Format: cell-based. The following applies: Homo sapiens, SK-BR-3, 72 h, inhibition of proliferation. A digest of the protocol:
as §1
Turning to `Cc1cc([C@@H](C)Nc2ccccc2C(=O)O)c2cc(OCC(F)(F)F)n(C)c(=O)c2c1` [Example 332], the EC50 was greater than 15 µM.
`Cc1cc([C@@H](C)Nc2ccccc2C(=O)O)c2cc(OCC3(C)CC3)n(C)c(=O)c2c1` [Example 333]: the EC50 is greater than 15 µM.
Still for that read-out and setting: the result for `Cc1cc([C@@H](C)Nc2ccccc2C(=O)O)c2cc(OCc3ccc(C)nc3)n(C)c(=O)c2c1` [Example 334] reads greater than 15 µM; that for `Cc1cc([C@@H](C)Nc2ccccc2C(=O)O)c2cc(OCc3ccccn3)n(C)c(=O)c2c1` [Example 335], greater than 15 µM; that for `Cc1cc([C@@H](C)Nc2ccc(Cl)nc2C(=O)O)c2cc(N3CCN(CC(F)(F)F)CC3)n(C)c(=O)c2c1` [Example 336], 2 to 15 µM.
Same read-out and setting: the result for `CC(C)c1ncc(-c2cc3c([C@@H](C)Nc4ccccc4C(=O)O)cc(Cl)cc3c(=O)n2C)cn1` [Example 337] reads greater than 15 µM; that for `Cc1cc([C@@H](C)Nc2ccccc2C(=O)O)c2cc(-c3cccc(C(F)F)n3)n(C)c(=O)c2c1` [Example 338], 2 to 15 µM.
The molecule `Cc1cc([C@@H](C)Nc2ccccc2C(=O)O)c2cc(OC3CC3)n(C)c(=O)c2c1` [Example 339] had an EC50 greater than 15 µM.
Same read-out and setting: the result for `Cc1cc([C@@H](C)Nc2ccccc2C(=O)O)c2cc(N3CCN(c4nccs4)CC3)n(C)c(=O)c2c1` [Example 340] reads greater than 15 µM; that for `Cc1cc([C@@H](C)Nc2ccccc2C(=O)O)c2cc(-c3cnc(C(F)F)nc3)n(C)c(=O)c2c1` [Example 341], greater than 15 µM.
For `Cc1cc([C@@H](C)Nc2ccccc2C(=O)O)c2cc(OCc3ccnc(C)c3)n(C)c(=O)c2c1` [Example 342], the EC50 was greater than 15 µM.
In turn, `Cc1cc([C@@H](C)Nc2cccc(F)c2C(=O)O)c2cc(N3CCN(c4ccc(C)nc4C)CC3)n(C)c(=O)c2c1` [Example 343] gave an EC50 of 2 to 15 µM.
On to `C[C@@H](Nc1ccccc1C(=O)O)c1cc(F)cc2c(=O)n(C)c(-c3cnc(C4CC4)s3)cc12` [Example 344], for which the EC50 was greater than 15 µM.
The same measure, in the same setting: the result for `C[C@@H](Nc1ccccc1C(=O)O)c1cc(F)cc2c(=O)n(C)c(-c3cnc(OC4CC4)s3)cc12` [Example 345] reads greater than 15 µM; that for `COC(C)(C)c1ncc(-c2cc3c([C@@H](C)Nc4cccc(F)c4C(=O)O)cc(C)cc3c(=O)n2C)cc1F` [Example 346], greater than 15 µM.
Still for that read-out and setting: the result for `CCOc1ncc(-c2cc3c([C@@H](C)Nc4cccc(F)c4C(=O)O)cc(C)cc3c(=O)n2C)s1` [Example 347] reads greater than 15 µM.

A further assay has as its system phosphorylation of AKT (pAKT) in T47D cells expressing mutant PI3Ka (H1047R). The assay can be described thus: In vitro cell pAKT (Ser473) HTRF, T47D cells. It is filed as cell-based. The following applies: Homo sapiens, T47D, 6 h, cellular pAKT, T47D cells, mutant PI3Ka (H1047R), 6 hours; read-out: Avg T-47D IC50. Put shortly:
(§2)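 Cells seeded on plates pre-stamped with 10-point compound dilutions, then grown 6 h at 37 °C (T47D in RPMI/10% FBS/insulin; SKBR3 in McCoy's 5a/10% FBS). Lysates read for pAKT Ser473 by HTRF after overnight antibody incubation. Inhibition normalised to 0.1% DMSO and 10 uM alpelisib; IC50 by four-parameter fit.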
A general note: Time-resolved FRET reads energy transfer from a long-lived donor to a nearby acceptor.
By IC50 is commonly meant the concentration that gives 50% inhibition. For `Cc1cc([C@@H](C)Nc2ccccc2C(=O)O)c2cc(OCC(F)(F)F)n(C)c(=O)c2c1` [Example 332], the IC50 lay in the range of 1 to 500 nM.
On the same count and under the same terms, the result for `Cc1cc([C@@H](C)Nc2ccccc2C(=O)O)c2cc(OCC3(C)CC3)n(C)c(=O)c2c1` [Example 333] reads 1 to 500 nM; that for `Cc1cc([C@@H](C)Nc2ccccc2C(=O)O)c2cc(OCc3ccc(C)nc3)n(C)c(=O)c2c1` [Example 334], 1 to 500 nM.
Still for that read-out and setting: the result for `Cc1cc([C@@H](C)Nc2ccccc2C(=O)O)c2cc(OCc3ccccn3)n(C)c(=O)c2c1` [Example 335] reads 1 to 500 nM; that for `Cc1cc([C@@H](C)Nc2ccc(Cl)nc2C(=O)O)c2cc(N3CCN(CC(F)(F)F)CC3)n(C)c(=O)c2c1` [Example 336], 1 to 500 nM.
On to `CC(C)c1ncc(-c2cc3c([C@@H](C)Nc4ccccc4C(=O)O)cc(Cl)cc3c(=O)n2C)cn1` [Example 337], for which the IC50 was 1 to 500 nM.
As for `Cc1cc([C@@H](C)Nc2ccccc2C(=O)O)c2cc(-c3cccc(C(F)F)n3)n(C)c(=O)c2c1` [Example 338], the IC50 lay in the range of 1 to 500 nM.
Turning to `Cc1cc([C@@H](C)Nc2ccccc2C(=O)O)c2cc(OC3CC3)n(C)c(=O)c2c1` [Example 339], the IC50 was 1 to 500 nM.
For `Cc1cc([C@@H](C)Nc2ccccc2C(=O)O)c2cc(N3CCN(c4nccs4)CC3)n(C)c(=O)c2c1` [Example 340], the IC50 lay in the range of 1 to 500 nM.
In the case of `Cc1cc([C@@H](C)Nc2ccccc2C(=O)O)c2cc(-c3cnc(C(F)F)nc3)n(C)c(=O)c2c1` [Example 341], the IC50 was 1 to 500 nM.
Consider `Cc1cc([C@@H](C)Nc2ccccc2C(=O)O)c2cc(OCc3ccnc(C)c3)n(C)c(=O)c2c1` [Example 342], for which the IC50 was 1 to 500 nM.
Consider `Cc1cc([C@@H](C)Nc2cccc(F)c2C(=O)O)c2cc(N3CCN(c4ccc(C)nc4C)CC3)n(C)c(=O)c2c1` [Example 343], for which the IC50 lay in the range of 1 to 500 nM.
Take `C[C@@H](Nc1ccccc1C(=O)O)c1cc(F)cc2c(=O)n(C)c(-c3cnc(C4CC4)s3)cc12` [Example 344]: the IC50 was 1 to 500 nM.
The same measure, in the same setting: the result for `C[C@@H](Nc1ccccc1C(=O)O)c1cc(F)cc2c(=O)n(C)c(-c3cnc(OC4CC4)s3)cc12` [Example 345] reads 1 to 500 nM; that for `COC(C)(C)c1ncc(-c2cc3c([C@@H](C)Nc4cccc(F)c4C(=O)O)cc(C)cc3c(=O)n2C)cc1F` [Example 346], 1 to 500 nM; that for `CCOc1ncc(-c2cc3c([C@@H](C)Nc4cccc(F)c4C(=O)O)cc(C)cc3c(=O)n2C)s1` [Example 347], 1 to 500 nM.

The subject of another assay is phosphorylation of AKT (pAKT) in SKBR3 cells express WT PI3Ka. The assay can be described thus: In vitro cell pAKT (Ser473) HTRF, SKBR3 cells. Format: cell-based. To be noted: Homo sapiens, SK-BR-3, 6 h, cellular pAKT. A digest of the protocol:
as §2
The molecule `Cc1cc([C@@H](C)Nc2ccccc2C(=O)O)c2cc(OCC(F)(F)F)n(C)c(=O)c2c1` [Example 332] displayed an IC50 greater than 15 µM.
For `Cc1cc([C@@H](C)Nc2ccccc2C(=O)O)c2cc(OCC3(C)CC3)n(C)c(=O)c2c1` [Example 333], the IC50 was greater than 15 µM.
In turn, `Cc1cc([C@@H](C)Nc2ccccc2C(=O)O)c2cc(OCc3ccc(C)nc3)n(C)c(=O)c2c1` [Example 334] showed an IC50 greater than 15 µM.
`Cc1cc([C@@H](C)Nc2ccccc2C(=O)O)c2cc(OCc3ccccn3)n(C)c(=O)c2c1` [Example 335] gave an IC50 greater than 15 µM.
On to `Cc1cc([C@@H](C)Nc2ccc(Cl)nc2C(=O)O)c2cc(N3CCN(CC(F)(F)F)CC3)n(C)c(=O)c2c1` [Example 336], for which the 50% inhibitory concentration (IC50) was 2 to 15 µM.
Consider `CC(C)c1ncc(-c2cc3c([C@@H](C)Nc4ccccc4C(=O)O)cc(Cl)cc3c(=O)n2C)cn1` [Example 337], for which the IC50 is greater than 15 µM.
`Cc1cc([C@@H](C)Nc2ccccc2C(=O)O)c2cc(-c3cccc(C(F)F)n3)n(C)c(=O)c2c1` [Example 338] gave an IC50 greater than 15 µM.
`Cc1cc([C@@H](C)Nc2ccccc2C(=O)O)c2cc(OC3CC3)n(C)c(=O)c2c1` [Example 339] registered an IC50 greater than 15 µM.
Take `Cc1cc([C@@H](C)Nc2ccccc2C(=O)O)c2cc(N3CCN(c4nccs4)CC3)n(C)c(=O)c2c1` [Example 340]: the IC50 fell in the range of 2 to 15 µM.
Same read-out and setting: the result for `Cc1cc([C@@H](C)Nc2ccccc2C(=O)O)c2cc(-c3cnc(C(F)F)nc3)n(C)c(=O)c2c1` [Example 341] reads greater than 15 µM; that for `Cc1cc([C@@H](C)Nc2ccccc2C(=O)O)c2cc(OCc3ccnc(C)c3)n(C)c(=O)c2c1` [Example 342], greater than 15 µM.
On the same count and under the same terms, the result for `Cc1cc([C@@H](C)Nc2cccc(F)c2C(=O)O)c2cc(N3CCN(c4ccc(C)nc4C)CC3)n(C)c(=O)c2c1` [Example 343] reads 2 to 15 µM; that for `C[C@@H](Nc1ccccc1C(=O)O)c1cc(F)cc2c(=O)n(C)c(-c3cnc(C4CC4)s3)cc12` [Example 344], greater than 15 µM; that for `C[C@@H](Nc1ccccc1C(=O)O)c1cc(F)cc2c(=O)n(C)c(-c3cnc(OC4CC4)s3)cc12` [Example 345], greater than 15 µM.
Consider `COC(C)(C)c1ncc(-c2cc3c([C@@H](C)Nc4cccc(F)c4C(=O)O)cc(C)cc3c(=O)n2C)cc1F` [Example 346], for which the IC50 is greater than 15 µM.
Same read-out and setting: the result for `CCOc1ncc(-c2cc3c([C@@H](C)Nc4cccc(F)c4C(=O)O)cc(C)cc3c(=O)n2C)s1` [Example 347] reads greater than 15 µM.
